According to ChEMBL document CHEMBL1201862, “PubChem BioAssay data set” (2004):
The source made the active and inactive calls. For most assays here, no stated cut-off is given here; in the data, actives have a measured EC50 and inactives only a lower limit.

Assays:
[1] = target: T1, Polyadenylate-binding protein 1 (Homo sapiens, UniProt P11940); test: MLLE binding blockers, Cy5 peptide tracer – biochemical, fluorescence polarization, Cy5-PAM2 peptide, secondary, miRNA deadenylation inhibitor project, dose response (AID 602260); format: functional; details: read-out: IC50_Mean
[2] = target: T1, Polyadenylate-binding protein 1; test: MLLE domain peptide-binding blockers, IC50 – biochemical, fluorescence polarization, FITC-PAM2 peptide, dose response (AID 602259); format: functional; details: read-out: IC50_Mean
[3] = target: T2, Protein skinhead-1 (Caenorhabditis elegans, UniProt P34707); format: functional
T2 sequence (P34707 whole entry): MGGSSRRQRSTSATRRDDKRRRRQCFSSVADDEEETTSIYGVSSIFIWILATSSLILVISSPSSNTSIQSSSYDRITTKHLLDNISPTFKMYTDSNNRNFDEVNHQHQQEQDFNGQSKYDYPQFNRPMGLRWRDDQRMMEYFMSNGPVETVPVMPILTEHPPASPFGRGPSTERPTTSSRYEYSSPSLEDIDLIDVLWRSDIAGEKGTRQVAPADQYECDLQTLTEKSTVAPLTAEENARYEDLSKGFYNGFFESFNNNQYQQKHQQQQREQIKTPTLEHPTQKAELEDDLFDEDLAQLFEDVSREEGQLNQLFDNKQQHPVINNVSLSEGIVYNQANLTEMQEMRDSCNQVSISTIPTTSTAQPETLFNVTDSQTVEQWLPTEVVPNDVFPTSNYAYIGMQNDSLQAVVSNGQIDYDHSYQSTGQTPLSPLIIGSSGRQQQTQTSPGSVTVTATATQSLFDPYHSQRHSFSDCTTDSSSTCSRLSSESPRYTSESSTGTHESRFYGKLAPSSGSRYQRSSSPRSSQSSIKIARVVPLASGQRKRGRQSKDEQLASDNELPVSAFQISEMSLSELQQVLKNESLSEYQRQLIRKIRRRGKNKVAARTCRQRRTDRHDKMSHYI

[4] = Luminescence Cell-Based Dose Response HTS to Identify Activators of Luciferase Translation or Activity in H4 […] Cells. [Related pubchem assays: 1829 (Project Summary), 1814 (Primary HTS)]; format: functional
[5] = system: H4; test: Luminescence Cell-Based Dose Response HTS to Identify Activators of 5'UTR Stem-Loop Driven Prion Protein mRNA Translation in H4 Neuroglioblastoma Cells. [Related pubchem assays: 1829 (Project Summary), 1814 (Primary HTS)]; format: functional; details: Homo sapiens
[6] = cells; format: functional, cell-based
[7] = cells; format: functional, cell-based; remark: listed apart in the source
[8] = target: T3, Ubiquitin-conjugating enzyme E2 N (Homo sapiens, UniProt P61088); format: functional;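 further: Dose-response confirmation in a TR-FRET assay detecting UBC13-driven polyubiquitin chain formation, inhibition measured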
T3 sequence (P61088 whole entry): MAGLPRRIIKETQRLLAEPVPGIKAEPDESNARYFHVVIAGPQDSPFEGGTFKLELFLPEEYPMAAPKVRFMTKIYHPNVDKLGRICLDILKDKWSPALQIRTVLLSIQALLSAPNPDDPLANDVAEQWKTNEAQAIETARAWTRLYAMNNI

[9] = microbe, parasite or virus in culture; format: functional; details: Mycobacterium tuberculosis
[10] = target: T4, RNA-binding protein pos-1 (Caenorhabditis elegans, UniProt G5EF15); test: disruptors of C. elegans POS-1 RNA interaction – biochemical, fluorescence polarization, dose response (AID 1964);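 further: purified POS-1 fused to maltose binding protein made in E. coli; potency of compounds blocking POS-1 binding to fluorescent RNA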
T4 sequence (G5EF15 whole entry): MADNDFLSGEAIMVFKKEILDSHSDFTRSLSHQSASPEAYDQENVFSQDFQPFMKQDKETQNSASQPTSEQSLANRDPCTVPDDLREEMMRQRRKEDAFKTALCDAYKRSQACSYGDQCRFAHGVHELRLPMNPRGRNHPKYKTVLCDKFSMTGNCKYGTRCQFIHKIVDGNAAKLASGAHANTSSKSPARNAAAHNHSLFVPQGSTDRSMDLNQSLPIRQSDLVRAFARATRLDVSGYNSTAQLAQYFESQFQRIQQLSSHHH

[11] = target: T5, Zinc finger protein mex-5 (Caenorhabditis elegans, UniProt Q9XUB2); test: potency of MEX-5 RNA-binding blockers – biochemical, C. elegans, fluorescence polarization, dose response (AID 1960)
T5 sequence (Q9XUB2 whole entry): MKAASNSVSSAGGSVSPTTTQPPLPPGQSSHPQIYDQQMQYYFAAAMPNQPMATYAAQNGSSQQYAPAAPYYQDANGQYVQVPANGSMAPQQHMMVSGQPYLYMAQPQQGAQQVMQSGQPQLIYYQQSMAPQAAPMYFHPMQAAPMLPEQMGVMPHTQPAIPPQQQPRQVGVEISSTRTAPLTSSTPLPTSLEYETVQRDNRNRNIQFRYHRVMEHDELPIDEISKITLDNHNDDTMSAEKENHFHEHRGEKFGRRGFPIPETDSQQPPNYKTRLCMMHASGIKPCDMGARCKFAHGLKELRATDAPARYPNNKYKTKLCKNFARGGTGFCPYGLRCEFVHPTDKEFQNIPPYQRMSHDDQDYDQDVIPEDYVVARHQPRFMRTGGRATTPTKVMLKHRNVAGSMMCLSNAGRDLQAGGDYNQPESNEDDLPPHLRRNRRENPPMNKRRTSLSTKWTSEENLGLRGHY

[12] = system: Streptococcus sp. 'group A'; test: Streptococcus pyogenes SK(-)GAS viability under kanamycin – luminescence, BacTiterGlo, confirmation, counter-screen for streptokinase expression inhibitor project, dose response (AID 1900); format: functional, organism-based
[13] = target: T6, Streptokinase A (Streptococcus pyogenes serotype M1, UniProt P10520); test: viability-normalized secreted streptokinase activity reduction – plasminogen activation absorbance, OD405, dose response (AID 1914); format: functional, Streptococcus pyogenes M1 GAS;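 further: secreted streptokinase activity via plasminogen activation per viability signal from cell pellet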
T6 sequence (P10520 whole entry): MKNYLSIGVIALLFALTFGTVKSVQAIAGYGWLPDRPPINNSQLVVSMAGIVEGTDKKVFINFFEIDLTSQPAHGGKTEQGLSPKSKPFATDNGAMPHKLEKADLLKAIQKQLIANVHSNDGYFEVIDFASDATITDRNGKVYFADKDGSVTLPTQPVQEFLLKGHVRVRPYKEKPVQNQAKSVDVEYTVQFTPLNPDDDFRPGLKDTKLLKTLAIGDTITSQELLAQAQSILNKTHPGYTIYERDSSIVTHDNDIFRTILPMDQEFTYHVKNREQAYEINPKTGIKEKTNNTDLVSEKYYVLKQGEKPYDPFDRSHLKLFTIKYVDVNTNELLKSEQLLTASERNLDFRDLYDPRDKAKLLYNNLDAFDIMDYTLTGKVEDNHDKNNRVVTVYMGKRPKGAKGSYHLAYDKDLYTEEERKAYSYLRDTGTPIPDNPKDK

[14] = system: Streptococcus; test: GAS UMAA2166 growth inhibition – luminescence, BacTiterGlo, counter-screen for streptokinase expression inhibitor project, dose response (AID 1915); format: functional, organism-based;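 further: potency for reduction of bacterial viability or growth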
[15] = target: T7, Replicative DNA helicase DnaB (Mycobacterium tuberculosis, UniProt P9WMR3); test: DnaB intein splicing inhibitors, dose response, biochemical, cell-free fluorescence (AID 449749); format: functional
T7 sequence (P9WMR3 whole entry): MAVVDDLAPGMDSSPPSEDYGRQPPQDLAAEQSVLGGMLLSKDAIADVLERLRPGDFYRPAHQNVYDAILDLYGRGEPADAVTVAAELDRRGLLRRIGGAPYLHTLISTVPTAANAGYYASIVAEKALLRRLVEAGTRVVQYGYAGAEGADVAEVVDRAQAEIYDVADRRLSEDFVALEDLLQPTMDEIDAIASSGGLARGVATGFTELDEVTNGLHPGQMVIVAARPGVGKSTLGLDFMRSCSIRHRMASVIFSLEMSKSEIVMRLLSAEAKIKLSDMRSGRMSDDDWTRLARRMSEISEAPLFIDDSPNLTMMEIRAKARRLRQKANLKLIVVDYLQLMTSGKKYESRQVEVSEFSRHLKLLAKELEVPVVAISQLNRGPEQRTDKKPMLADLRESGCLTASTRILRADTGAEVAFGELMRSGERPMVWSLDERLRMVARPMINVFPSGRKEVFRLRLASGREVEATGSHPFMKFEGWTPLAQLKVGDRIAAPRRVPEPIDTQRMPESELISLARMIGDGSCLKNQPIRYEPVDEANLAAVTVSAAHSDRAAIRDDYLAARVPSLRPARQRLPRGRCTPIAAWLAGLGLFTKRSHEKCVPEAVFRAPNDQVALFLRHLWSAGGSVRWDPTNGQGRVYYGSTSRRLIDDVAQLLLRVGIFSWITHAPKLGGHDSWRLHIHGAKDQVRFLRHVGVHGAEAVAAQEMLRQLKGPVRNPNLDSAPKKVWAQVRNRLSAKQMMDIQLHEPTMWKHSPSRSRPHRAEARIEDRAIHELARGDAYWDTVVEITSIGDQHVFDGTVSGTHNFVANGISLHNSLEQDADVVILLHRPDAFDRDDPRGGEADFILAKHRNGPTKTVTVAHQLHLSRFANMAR

T1 sequence (P11940 whole entry, the tested form may be a part): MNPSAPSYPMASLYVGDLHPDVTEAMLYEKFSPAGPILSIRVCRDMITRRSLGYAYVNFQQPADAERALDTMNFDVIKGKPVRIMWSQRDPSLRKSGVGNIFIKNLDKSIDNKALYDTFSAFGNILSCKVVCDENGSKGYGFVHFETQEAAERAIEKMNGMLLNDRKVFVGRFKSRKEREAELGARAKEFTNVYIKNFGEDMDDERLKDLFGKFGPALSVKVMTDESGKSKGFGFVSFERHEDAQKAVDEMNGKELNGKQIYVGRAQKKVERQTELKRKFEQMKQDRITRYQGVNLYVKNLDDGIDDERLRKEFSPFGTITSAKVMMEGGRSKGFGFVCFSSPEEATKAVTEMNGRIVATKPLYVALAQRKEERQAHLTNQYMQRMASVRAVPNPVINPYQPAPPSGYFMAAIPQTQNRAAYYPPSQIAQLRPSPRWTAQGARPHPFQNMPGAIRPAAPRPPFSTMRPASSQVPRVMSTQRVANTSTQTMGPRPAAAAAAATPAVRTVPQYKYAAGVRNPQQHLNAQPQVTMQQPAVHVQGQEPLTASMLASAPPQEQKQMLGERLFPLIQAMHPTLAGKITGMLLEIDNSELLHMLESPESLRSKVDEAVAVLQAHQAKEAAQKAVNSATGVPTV

O=C1CCn2c1c(O)c1ccccc1c2=O
IC50 [1]: > 66 µM (inactive) | IC50 [2]: 43.6 µM (inactive)

CC(C)C(OC(=O)C1=Cc2ccccc2OC1)C(=O)NC1CCCC1 (stereo not drawn)
IC50 [3]: > 100 µM (inactive)

Cc1nn(CC(C)C)c(Cl)c1C(=O)NC1CCC(C)CC1 (stereo not drawn)
EC50 [4]: 0.258 µM (active) | EC50 [5]: 1.19 µM (active)

Clc1ccccc1-c1ccc(CN2CCN(c3ccccc3)CC2)o1
IC50 [3]: > 100 µM (inactive)

COc1ccc(C(=O)C2CCCN(C(=O)C3CCOCC3)C2)cc1OC (stereo not drawn)
EC50 [6]: > 350 µM (not active) | EC50 [7]: > 350 µM (not active)

CC1CCN(Cc2nnnn2CCCC(=O)NCCc2cnn(C)c2)CC1
EC50 [6]: > 350 µM (not active) | EC50 [7]: > 350 µM (not active)

CC(C)=CCc1c(O)cc(O)c2c(=O)c(O[C@@H]3O[C@@H](C)[C@H](O)[C@@H](O)[C@H]3O)c(-c3ccc(O)cc3)oc12
IC50 [8]: > 20 µM (inactive)

Fc1ccc(NC(S)=Nc2ccc(Br)cc2)cc1
IC50 [1]: > 66 µM (inactive) | IC50 [2]: > 66 µM (inactive)

O=C(NCCCN1CCOCC1)c1cc2c3ccccc3nc-2c(-c2cccc(Br)c2)[nH]1
CC50 [9]: 19.4 µM (active) | IC50 [8]: > 20 µM (inactive)

CCOc1ccc(-c2nnc(-c3cccs3)o2)cc1
IC50 [3]: > 100 µM (inactive)

CC/C(NN1CCCCCC1)=C1/C(=O)NC(=O)N(c2ccc(C)cc2)C1=O
EC50 [6]: > 350 µM (not active) | EC50 [7]: > 350 µM (not active)

Cc1ccc(C(C(=O)NC(C)(C)C)N(Cc2ccccc2)C(=O)c2snc(C(N)=O)c2N)o1 (stereo not drawn)
IC50 [8]: > 20 µM (inactive)

Cn1c(CC(=O)Nc2ccccc2)cc2ccccc21
EC50 [6]: > 350 µM (not active) | EC50 [7]: > 350 µM (not active)

CCN(CC)C(=O)c1sc2nc(-c3cccs3)cc(-c3cccs3)c2c1N
EC50 [10]: > 300 µM (not active) | EC50 [11]: > 300 µM (not active)

CNS(=O)(=O)c1ccc2c(c1)nc(S)n2C
IC50 [3]: > 100 µM (inactive)

OCCN(CCO)c1ccc(C(c2ccccc2Cl)c2ccc(N(CCO)CCO)cc2Cl)c(Cl)c1
EC50 [12]: 4.01 µM (active) | EC50 [13]: 4.84 µM (active) | EC50 [14]: 8.65 µM (active) | AC50 [15]: 1.91 µM (active) | IC50 [3]: > 100 µM (inactive)

CC1=CC(C)(C)N2C(=O)C3(C(C#N)=C(N)OC4=C3C(=O)CC(C)(C)C4)c3c(C)c(C)cc1c32 (stereo not drawn)
EC50 [10]: > 300 µM (not active) | EC50 [11]: > 300 µM (not active)

CCCCOc1c(Br)cc(/C=N/O)cc1OCC
EC50 [10]: > 300 µM (not active) | EC50 [11]: > 300 µM (not active)

COc1ccc(NS(=O)(=O)c2ccc(F)c(Cl)c2)cn1
IC50 [1]: 46.2 µM (inactive) | IC50 [2]: 24.2 µM (inactive)

O=C(CSc1n[nH]c2c3ccccc3nc-2n1)NCc1ccco1
IC50 [1]: > 66 µM (inactive) | IC50 [2]: > 66 µM (inactive)

COCCn1cc(C(=O)NCc2cccs2)c2c3ccccc3n(C)c2c1=O
IC50 [3]: > 100 µM (inactive)

CCc1ccc(-c2nn(-c3cc(Cl)ccc3[N+](=O)[O-])c(=O)c3ccccc23)cc1
IC50 [3]: > 100 µM (inactive)

COC(=O)c1ccccc1-n1c(CCC(=O)O)ccc1-c1ccc(F)cc1
EC50 [10]: > 300 µM (not active) | EC50 [11]: > 300 µM (not active)

Cc1ccc(-c2nc(/C=N/c3ccc(O)cc3)c(O)o2)cc1
EC50 [10]: > 300 µM (not active) | EC50 [11]: > 300 µM (not active)

O=C(C1=C[C@@H](C2CC2)C[C@@H](OCCCCO)O1)N1CCN(Cc2ccc3c(c2)OCO3)CC1
EC50 [6]: > 350 µM (not active) | EC50 [7]: > 350 µM (not active)

Cc1cccc(NC(=S)Nc2ccc(Cl)c(Cl)c2)c1
EC50 [13]: 24.5 µM (active) | IC50 [1]: > 66 µM (inactive) | IC50 [2]: > 66 µM (inactive)
